Article doi:10.1101/2021.02.13.431112v1 (bioRxiv, 2021)
Each block holds one molecule with its values, some of them ahead of it.

Assays:
MDA-MB-231R cells = assay: Confocal uptake of NBD-Def1; type: cell-based; conditions: confocal microscopy, 20, 6.6 or 2.2 ug/ml, 15 min, 37C, N=4
SKOV3 cells = assay: Confocal uptake of NBD-Def1; type: cell-based; conditions: confocal microscopy, 20, 6.6 or 2.2 ug/ml, 15 min, 37C, N=4
[1] = test system: MCF-10A normal epithelial breast cells; assay: Confocal uptake of NBD-Def1; type: cell-based; conditions: confocal microscopy, 5 times higher dose (200 mg/mL)
fibroblasts cells = assay: Confocal uptake of NBD-Def1; type: cell-based; conditions: confocal microscopy, 5 times higher dose (200 mg/mL)
[2] = test system: induced pluripotent stem cell derived cardiomyocytes (iPSC); assay: MTT viability assay, IC-50; type: cell-based, human
[3] = test system: Bone Marrow Cells MSC-001F; assay: Viability assay, IC-50; type: cell-based; conditions: normal cells
MCF-10A Epithelial Cells = assay: MTT viability assay, IC-50; type: cell-based; conditions: normal epithelial breast cells, 24 h
[4] = 15N NMR chemical shift mapping of Def1 binding to GlcCer; conditions: 15N-labeled Def1, chemical shift perturbation, T1, 15N-1H NOE; N=3
MCF-7R cells = assay: Ceramide release by LC-MS/MS; type: cell-based; conditions: 20 μM, 6 hrs, Doxorubicin resistant MCF-7R cells, n=4, preliminary
thioredoxin (Trx) = target: T1, thioredoxin (Trx) (Homo sapiens, UniProt P10599); assay: Thioredoxin redox Western blot; type: cell-based; conditions: 20 μM Def1, Doxorubicin resistant MDA-MB-231-R cells, N=4
T1 sequence (P10599 1-105): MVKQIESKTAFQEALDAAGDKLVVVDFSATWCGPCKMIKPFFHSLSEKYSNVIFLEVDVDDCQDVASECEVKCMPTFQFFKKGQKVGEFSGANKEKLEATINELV

ASK1 = assay: Immunoblot of ASK1 Thr845 phosphorylation; type: cell-based; conditions: 50 μM, 60 minutes, MDA-MB-231 cells, vs solvent control and NAC control, N=4
MDA-MB-231 = conditions: read-out: IC-50, MDA-MB-231; unit printed only in neighbouring columns; ref 39b; cited from earlier work
MCF-7 = conditions: read-out: IC-50, MCF-7; unit printed only in neighbouring columns; ref 39b; cited from earlier work
BT-549 = conditions: read-out: IC-50, BT-549; unit printed only in neighbouring columns; ref 39b; cited from earlier work

Molecule: 6-((N-(7-nitrobenz-2-oxa-1, 3-diazol-4-yl) amino) hexanoyl (NBD)-Def1 [NBD-Def1]
uptake, MDA-MB-231R (MDA-MB-231R cells): concentration dependent uptake
uptake, SKOV3 (SKOV3 cells): concentration dependent uptake
uptake, normal epithelial breast cells MCF-10A [1]: did not pick up
uptake, fibroblasts (fibroblasts cells): did not pick up

Molecule: COc1cccc2c1C(=O)c1c(O)c3c(c(O)c1C2=O)C[C@@](O)(C(=O)CO)C[C@@H]3O[C@H]1C[C@H](N)[C@H](O)[C@H](C)O1 [Doxorubicin, reference compound]
more potency for cardiomyocytes and bone marrow cells ([2]; in contrast to Def1): 10-15 times

oxidation of Trx (new band at 28 KDa) (thioredoxin (Trx)): oxidation of Trx
Molecule: Medicago sativa Defensin 1 [Def1]
IC-50, Bone Marrow Cells MSC-001F [3]: > 150 µM
IC-50, MCF-10A Epithelial Cells (MCF-10A Epithelial Cells): > 200 µM
IC-50, iPSC (induced pluripotent stem cell derived cardiomyocytes) ([2]; human iPSC cardiomyocytes, MTT, 24 h): > 180 µM
binding to GlcCer [4]: binds to GlcCer at two regions
accumulation of ceramide (MCF-7R cells): enhanced accumulation of ceramide
phosphorylation of Thr845 residue of ASK1 (ASK1): significant increase

Molecule: hBD-1: Human Beta Defensin (hBD-1) with three S-S bonds (DHYNCVSSGGQCLYSACPIFTKIQGTCYRGKAKCCK; Beta-defensin 1; UniProt P60022 33-68, looked up)
IC50 (MDA-MB-231): 18 µM
IC50 (MCF-7): 21 µM
IC50 (BT-549): 17 µM
